Laboratory results taken from patent US20250145633A1, “SUBSTITUTED FURANOPYRIMIDINE COMPOUNDS AS PDE1 INHIBITORS” (Dart NeuroScience, LLC, priority 2017, published 2025).

Target: human PDE1B enzyme (Homo sapiens (Human), UniProt Q01064)
Assay: IMAP TR-FRET PDE1B enzymatic assay
Assay type: biochemical
Settings: negative log of half-maximal molar inhibitory concentration, 200 nM FAM-cAMP, values given as bins; for IC50: read-out: PDE1b (pIC50) (converted)
Outline: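 Full-length GST-tagged human PDE1B (250 pg/well) in IMAP BSA buffer with 10 U/ml calmodulin and 2.5 mM CaCl2; compound pre-incubated 5 min at room temperature, then 200 nM (final) FAM-cAMP for 30 min. IMAP binding reagent/Tb added, 1 h; TR-FRET 520/490 ratio read. IC50 from sigmoidal dose-response fit.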

Compound | IC50 [nM] | PDE1b (pIC50)
Cc1oc2ncnc(NC3(C)CC3)c2c1C(=O)NC1CCN(c2cnccn2)CC1 [Example 660, 6-Methyl-4-[(1-methylcyclopropyl)amino]-N-[1-(pyrazin-2-yl)piperidin-4-yl]furo[2,3-d]pyrimidine-5-carboxamide] | 10 to 100 | 
Cc1oc2ncnc(NC3(C)CC3)c2c1C(=O)NCc1cc(=O)[nH]cn1 [Example 661, 6-Methyl-4-[(1-methylcyclopropyl)amino]-N-[(6-oxo-1,6-dihydropyrimidin-4-yl)methyl]furo[2,3-d]pyrimidine-5-carboxamide] | 10 to 100 | 
Cc1nc(CNC(=O)c2c(C)oc3ncnc(NC4(C)CC4)c23)cc(=O)[nH]1 [Example 662, 6-Methyl-N-[(2-methyl-6-oxo-1,6-dihydropyrimidin-4-yl)methyl]-4-[(1-methylcyclopropyl)amino]furo[2,3-d]pyrimidine-5-carboxamide] | 10 to 100 | 
COc1ncnc2c1CN(C(=O)c1c(C)oc3ncnc(NC4(C)CC4)c13)CC2 [Example 663, 5-{4-Methoxy-5H,6H,7H,8H-pyrido[4,3-d]pyrimidine-6-carbonyl}-6-methyl-N-(1-methylcyclopropyl)furo[2,3-d]pyrimidin-4-amine] | 100 to 1000 | 
Cc1oc2ncnc(NC3(C)CC3)c2c1C(=O)NCc1ncc(C(C)C)o1 [Example 664, 6-Methyl-4-[(1-methylcyclopropyl)amino]-N-{[5-(propan-2-yl)-1,3-oxazol-2-yl]methyl}furo[2,3-d]pyrimidine-5-carboxamide] | 10 to 100 | 
Cc1oc2ncnc(NC3(C)CC3)c2c1C(=O)NC1CCN(c2ncccn2)CC1 [Example 665, 6-Methyl-4-[(1-methylcyclopropyl)amino]-N-[1-(pyrimidin-2-yl)piperidin-4-yl]furo[2,3-d]pyrimidine-5-carboxamide] | 10 to 100 | 
COc1cc(CNC(=O)c2c(C)oc3ncnc(NC4(C)CC4)c23)ncn1 [Example 666, N-[(6-Methoxypyrimidin-4-yl)methyl]-6-methyl-4-[(1-methylcyclopropyl)amino]furo[2,3-d]pyrimidine-5-carboxamide] |  | >8
COc1cc(CNC(=O)c2c(C)oc3ncnc(NC4(C)CC4)c23)nc(C)n1 [Example 667, N-[(6-Methoxy-2-methylpyrimidin-4-yl)methyl]-6-methyl-4-[(1-methylcyclopropyl)amino]furo[2,3-d]pyrimidine-5-carboxamide] |  | >8
Cc1oc2ncnc(NC3(C)CC3)c2c1C(=O)N1CCc2cnccc2C1 [Example 668, 6-Methyl-N-(1-methylcyclopropyl)-5-(1,2,3,4-tetrahydro-2,6-naphthyridine-2-carbonyl)furo[2,3-d]pyrimidin-4-amine] | 10 to 100 | 
Cc1oc2ncnc(NC3(C)CC3)c2c1C(=O)NC1CCN(c2ccccn2)C1 (centres unmarked) [Example 669, 6-Methyl-4-[(1-methylcyclopropyl)amino]-N-[1-(pyridin-2-yl)pyrrolidin-3-yl]furo[2,3-d]pyrimidine-5-carboxamide] | 10 to 100 | 
Cc1nccc(N2CCC(NC(=O)c3c(C)oc4ncnc(NC5(C)CC5)c34)CC2)n1 [Example 670, 6-Methyl-4-[(1-methylcyclopropyl)amino]-N-[1-(2-methylpyrimidin-4-yl)piperidin-4-yl]furo[2,3-d]pyrimidine-5-carboxamide] | 100 to 1000 | 
Cc1cc(N2CCC(NC(=O)c3c(C)oc4ncnc(NC5(C)CC5)c34)CC2)ncn1 [Example 671, 6-Methyl-4-[(1-methylcyclopropyl)amino]-N-[1-(6-methylpyrimidin-4-yl)piperidin-4-yl]furo[2,3-d]pyrimidine-5-carboxamide] | 100 to 1000 | 
Cc1cc(N2CCC(NC(=O)c3c(C)oc4ncnc(NC5(C)CC5)c34)CC2)nc(C)n1 [Example 672, N-[1-(2,6-Dimethylpyrimidin-4-yl)piperidin-4-yl]-6-methyl-4-[(1-methylcyclopropyl)amino]furo[2,3-d]pyrimidine-5-carboxamide] | 100 to 1000 | 
Cc1ncc(CNC(=O)c2c(C)oc3ncnc(NC4(C)CC4)c23)c(=O)[nH]1 [Example 673, 6-Methyl-N-[(2-methyl-6-oxo-1,6-dihydropyrimidin-5-yl)methyl]-4-[(1-methylcyclopropyl)amino]furo[2,3-d]pyrimidine-5-carboxamide] | 10 to 100 | 
Cc1oc2ncnc(NC3(C)CC3)c2c1C(=O)NCc1ccnc(-n2ccnc2)c1 [Example 674, N-{[2-(1H-Imidazol-1-yl)pyridin-4-yl]methyl}-6-methyl-4-[(1-methylcyclopropyl)amino]furo[2,3-d]pyrimidine-5-carboxamide] | 10 to 100 | 
Cc1oc2ncnc(NC3(C)CC3)c2c1C(=O)NCc1ccnc(N2CCOCC2)c1 [Example 675, 6-Methyl-4-[(1-methylcyclopropyl)amino]-N-{[2-(morpholin-4-yl)pyridin-4-yl]methyl}furo[2,3-d]pyrimidine-5-carboxamide] | 10 to 100 | 

Compound | IC50 [nM] | PDE1b (pIC50)
COc1nc(C)ncc1CNC(=O)c1c(C)oc2ncnc(NC3(C)CC3)c12 [Example 676, N-[(4-Methoxy-2-methylpyrimidin-5-yl)methyl]-6-methyl-4-[(1-methylcyclopropyl)amino]furo[2,3-d]pyrimidine-5-carboxamide] | 10 to 100 | 
Cc1oc2ncnc(NC3(C)CC3)c2c1C(=O)NCc1ccnc(Cl)n1 [Example 677, N-[(2-Chloropyrimidin-4-yl)methyl]-6-methyl-4-[(1-methylcyclopropyl)amino]furo[2,3-d]pyrimidine-5-carboxamide] | 10 to 100 | 
COc1ccc(CNC(=O)c2c(C)oc3ncnc(NC4(C)CC4)c23)nc1F [Example 678, N-[(6-Fluoro-5-methoxypyridin-2-yl)methyl]-6-methyl-4-[(1-methylcyclopropyl)amino]furo[2,3-d]pyrimidine-5-carboxamide] | 10 to 100 | 
Cc1ncc(CNC(=O)c2c(C)oc3ncnc(NC4(C)CC4)c23)cn1 [Example 679, 6-Methyl-4-[(1-methylcyclopropyl)amino]-N-[(2-methylpyrimidin-5-yl)methyl]furo[2,3-d]pyrimidine-5-carboxamide] | 10 to 100 | 
Cc1oc2ncnc(NC3(C)CC3)c2c1C(=O)NCc1nccc(C(F)(F)F)n1 [Example 680, 6-Methyl-4-[(1-methylcyclopropyl)amino]-N-{[4-(trifluoromethyl)pyrimidin-2-yl]methyl}furo[2,3-d]pyrimidine-5-carboxamide] | 10 to 100 | 
Cc1oc2ncnc(NC3(C)CC3)c2c1C(=O)N1Cc2nc(C3CC3)[nH]c(=O)c2C1 [Example 681, 2-Cyclopropyl-6-{6-methyl-4-[(1-methylcyclopropyl)amino]furo[2,3-d]pyrimidine-5-carbonyl}-3H,4H,5H,6H,7H-pyrrolo[3,4-d]pyrimidin-4-one] | 100 to 1000 | 
Cc1oc2ncnc(NC3(C)CC3)c2c1C(=O)N1Cc2nc(C(C)C)[nH]c(=O)c2C1 [Example 682, 6-{6-Methyl-4-[(1-methylcyclopropyl)amino]furo[2,3-d]pyrimidine-5-carbonyl}-2-(propan-2-yl)-3H,4H,5H,6H,7H-pyrrolo[3,4-d]pyrimidin-4-one] | 100 to 1000 | 
Cc1oc2ncnc(NC3(C)CC3)c2c1C(=O)N1CCn2nccc2C1 [Example 683, 6-Methyl-N-(1-methylcyclopropyl)-5-{4H,5H,6H,7H-pyrazolo[1,5-a]pyrazine-5-carbonyl}furo[2,3-d]pyrimidin-4-amine] | 10 to 100 | 
Cc1oc2ncnc(NC3(C)CC3)c2c1C(=O)N1CCn2c(cnc2C2CC2)C1 [Example 684, 5-{3-Cyclopropyl-5H,6H,7H,8H-imidazo[1,5-a]pyrazine-7-carbonyl}-6-methyl-N-(1-methylcyclopropyl)furo[2,3-d]pyrimidin-4-amine] | 100 to 1000 | 
COc1cc(CN(C)C(=O)c2c(C)oc3ncnc(NC4(C)CC4)c23)ncn1 [Example 685, N-[(6-Methoxypyrimidin-4-yl)methyl]-N,6-dimethyl-4-[(1-methylcyclopropyl)amino]furo[2,3-d]pyrimidine-5-carboxamide] | 100 to 1000 | 
Cc1oc2ncnc(NC3(C)CC3)c2c1C(=O)NCc1cc(C2CC2)ncn1 [Example 686, N-[(6-Cyclopropylpyrimidin-4-yl)methyl]-6-methyl-4-[(1-methylcyclopropyl)amino]furo[2,3-d]pyrimidine-5-carboxamide] |  | >8
COc1nc(C2CC2)nc2c1CN(C(=O)c1c(C)oc3ncnc(NC4(C)CC4)c13)C2 [Example 687, 5-{2-Cyclopropyl-4-methoxy-5H,6H,7H-pyrrolo[3,4-d]pyrimidine-6-carbonyl}-6-methyl-N-(1-methylcyclopropyl)furo[2,3-d]pyrimidin-4-amine] | 10 to 100 | 
COc1nc(C(C)C)nc2c1CN(C(=O)c1c(C)oc3ncnc(NC4(C)CC4)c13)C2 [Example 688, 5-[4-Methoxy-2-(propan-2-yl)-5H,6H,7H-pyrrolo[3,4-d]pyrimidine-6-carbonyl]-6-methyl-N-(1-methylcyclopropyl)furo[2,3-d]pyrimidin-4-amine] | 10 to 100 | 
Cc1oc2ncnc(NC3(C)CC3)c2c1C(=O)NCc1ccnc(C2CC2)n1 [Example 689, N-[(2-Cyclopropylpyrimidin-4-yl)methyl]-6-methyl-4-[(1-methylcyclopropyl)amino]furo[2,3-d]pyrimidine-5-carboxamide] | 10 to 100 | 
Cc1oc2ncnc(NC3(C)CC3)c2c1C(=O)N1CCc2cnc(Cl)nc2C1 [Example 690, 5-{2-Chloro-5H,6H,7H,8H-pyrido[3,4-d]pyrimidine-7-carbonyl}-6-methyl-N-(1-methylcyclopropyl)furo[2,3-d]pyrimidin-4-amine] | 10 to 100 | 
Cc1oc2ncnc(NC3(C)CC3)c2c1C(=O)NCc1ncc(C(C)(C)C)o1 [Example 691, N-[(5-tert-Butyl-1,3-oxazol-2-yl)methyl]-6-methyl-4-[(1-methylcyclopropyl)amino]furo[2,3-d]pyrimidine-5-carboxamide] | 10 to 100 | 
